# Target: HIV reverse transcriptase (Human immunodeficiency virus type 1 group M subtype B, UniProt P03366)
# Experiment: Reverse transcriptase scintillation proximity assay (Example 4, Table 2)
# Type: biochemical
# Settings: 10 μM inhibitor; relative to dimethyl sulfoxide = 100%; 3 min
# Experimental: Reverse transcriptase ("RT") activity is measured using a scintillation proximity assay kit available from Amersham Life Sciences, Inc., which uses a biotin/streptavidin bead capture system. RNA-dependent polymerase activity is measured using purified […] and a synthetic 17mer/50mer RNA-DNA template-primer containing biotin at the 5' end of the DNA. The template-primer, buffer, dNTP, and inhibitor are incubated for 10 minutes at 37° C. before the RT is added. The final 100 μl reaction mixture contains: 39 nm of template primer, buffer (40 mM tris HCl at pH 8.0, 10 mM MgCl2, 60 mM KCl, 10 mM dithiothreitol); 75 nM of each dNTP except dTTP; 25 nM dTTP and 35 nM tritium labeled d*TTP; 10 μM inhibitor; and 1.0-2.0 μg of RT. After three minute incubation, the reaction is quenched with 40 μl of 0.56M EDTA. Then 10 μl of streptavidin SPA beads (in suspension) are added and incubated at 37° C. for 10 minutes. Finally, 850 μl of a buffer containing 10 mM Tris HCl pH 7.4 and 0.15M NaCl is added. The signal is produced by biotinylated polymers incorporating d*TTP binding to the streptavidin beads which stimulate the scintillant. The amount of d*TTP incorporated in the polymer is measured with a scintillation counter.
# Compounds showing good inhibition will give a low number of counts/min (cpm). This number is related to a standard, dimethyl sulfoxide, which is given an arbitrary 100% relative activity. All cpm data in a single run are given a percent of this standard.
row,Compound,% RT activity remaining at 10 μM
1,O=C(Nc1ccc2c(O)c(N=Nc3ccc([As](=O)(O)O)cc3)c(S(=O)(=O)O)cc2c1)Nc1ccc2c(O)c(N=Nc3ccc([As](=O)(O)O)cc3)c(S(=O)(=O)O)cc2c1 [Compound 48],17%

# Same assay, conditions: 10 μM inhibitor; relative to dimethyl sulfoxide = 100%; 3 min, 10 µM
row,Compound,% RT activity remaining at 10 μM
1,CCOC(=O)c1ccc(NC(=O)Nc2ccc3c(O)cc(S(=O)(=O)O)cc3c2)cc1 [Compound 28],100%
2,O=C(O)c1ccc(N=Nc2c(S(=O)(=O)O)cc3cc(NC(=O)c4ccc(C(=O)Nc5ccc6c(O)c(N=Nc7ccc(C(=O)O)cc7)c(S(=O)(=O)O)cc6c5)cc4)ccc3c2O)cc1 [Compound 162],5.9%

# Same assay, conditions: 0.05 h, 10 μM inhibitor; relative to dimethyl sulfoxide = 100%; read-out: % RT activity remaining at 10 μM
row,Compound,remaining activity at 10 µM
1,O=c1c(Nc2ccc3cc(S(=O)(=O)O)cc(O)c3c2)c(Nc2ccc3cc(S(=O)(=O)O)cc(O)c3c2)c1=O [Compound 198],37%
2,O=C(O)CCc1ccc(N=Nc2c(S(=O)(=O)O)cc3cc(NC(=O)c4cccc(C(=O)Nc5ccc6c(O)c(N=Nc7ccc(CCC(=O)O)cc7)c(S(=O)(=O)O)cc6c5)n4)ccc3c2O)cc1 [Compound 120],0.21%
3,O=C(Nc1ccc2c(O)cc(S(=O)(=O)O)cc2c1)c1ccc(C(=O)Nc2ccc3c(O)cc(S(=O)(=O)O)cc3c2)cc1 [Compound 160],74%
4,O=C(Nc1ccc2cc(S(=O)(=O)O)ccc2c1)Nc1ccc2cc(S(=O)(=O)O)ccc2c1 [Compound 82],92%
5,O=C(Nc1ccc2c(O)cc(S(=O)(=O)O)cc2c1)Nc1cccc2ccccc12 [Compound 11],90%
6,CC(=O)Nc1ccc(N=Nc2c(S(=O)(=O)O)cc3cc(NC(=O)c4ccc(C(=O)Nc5ccc6c(O)c(N=Nc7ccc(NC(C)=O)cc7)c(S(=O)(=O)O)cc6c5)cc4)ccc3c2O)cc1 [Compound 174],28%
7,O=C(O)c1cc(N=Nc2c(S(=O)(=O)O)cc3cc(NC(=O)c4ccc(C(=O)Nc5ccc6c(O)c(N=Nc7cc(C(=O)O)cc(C(=O)O)c7)c(S(=O)(=O)O)cc6c5)cc4)ccc3c2O)cc(C(=O)O)c1 [Compound 178],91%
8,O=C(Nc1ccc2cc(S(=O)(=O)O)cc(S(=O)(=O)O)c2c1)Nc1ccc2cc(S(=O)(=O)O)cc(S(=O)(=O)O)c2c1 [Compound 78],80%
9,CC(=O)Nc1ccc2c(OC(C)=O)cc(S(=O)(=O)O)cc2c1 [Compound 22],100%
10,COc1cc(C(=O)O)ccc1N=Nc1c(S(=O)(=O)O)cc2cc(NC(=O)c3cc(O)cc(C(=O)Nc4ccc5c(O)c(N=Nc6ccc(C(=O)O)cc6OC)c(S(=O)(=O)O)cc5c4)n3)ccc2c1O [Compound 153],0.15%
11,O=C(Nc1cnc2ccccc2c1)Nc1ccc2c(O)cc(S(=O)(=O)O)cc2c1 [Compound 14],90%
12,O=C(Nc1ccc2ccc(S(=O)(=O)O)cc2c1)Nc1ccc2c(O)cc(S(=O)(=O)O)cc2c1 [Compound 7],78%
13,O=C(O)c1cc(N=Nc2c(S(=O)(=O)O)cc3cc(NC(=O)c4cc(=O)cc(C(=O)Nc5ccc6c(O)c(N=Nc7cc(C(=O)O)cc(C(=O)O)c7)c(S(=O)(=O)O)cc6c5)o4)ccc3c2O)cc(C(=O)O)c1 [Compound 143],0.23%
14,CCOC(=O)c1ccc(N=Nc2c(S(=O)(=O)O)cc3ccc(NC(=O)Nc4ccc5cc(S(=O)(=O)O)c(N=Nc6ccc(C(=O)OCC)cc6)c(O)c5c4)cc3c2O)cc1 [Compound 84],1.7%
15,O=C(Nc1ccc2c(O)cc(S(=O)(=O)O)cc2c1)c1cc(O)cc(C(=O)Nc2ccc3c(O)cc(S(=O)(=O)O)cc3c2)n1 [Compound 145],47%
16,O=C(Nc1ccc2c(c1)C(=O)c1ccccc1C2=O)Nc1ccc2c(O)cc(S(=O)(=O)O)cc2c1 [Compound 15],88%
17,COc1cc(C(=O)O)ccc1N=Nc1c(S(=O)(=O)O)cc2cc(NC(=O)c3cc(=O)cc(C(=O)Nc4ccc5c(O)c(N=Nc6ccc(C(=O)O)cc6OC)c(S(=O)(=O)O)cc5c4)o3)ccc2c1O [Compound 139],0.34%
18,O=C(Nc1ccc2ccc(S(=O)(=O)O)cc2c1)Nc1ccc2ccc(S(=O)(=O)O)cc2c1 [Compound 80],84%
19,O=C(Nc1ccc2c(O)cc(S(=O)(=O)O)cc2c1)Nc1ccc2cc(S(=O)(=O)O)cc(S(=O)(=O)O)c2c1 [Compound 8],83%
20,O=C(O)Cc1ccc(N=Nc2c(S(=O)(=O)O)cc3cc(Nc4c(Nc5ccc6c(O)c(N=Nc7ccc(CC(=O)O)cc7)c(S(=O)(=O)O)cc6c5)c(=O)c4=O)ccc3c2O)cc1 [Compound 187],0.3%

row,Compound,remaining activity at 10 µM
1,O=C(Nc1ccc2c(O)c(N=Nc3cc(F)c(F)c(C(=O)O)c3F)c(S(=O)(=O)O)cc2c1)c1cccc(C(=O)Nc2ccc3c(O)c(N=Nc4cc(F)c(F)c(C(=O)O)c4F)c(S(=O)(=O)O)cc3c2)n1 [Compound 126],0.16%
2,O=C(Nc1ccc2c(O)cc(S(=O)(=O)O)cc2c1)c1cc(=O)cc(C(=O)Nc2ccc3c(O)cc(S(=O)(=O)O)cc3c2)o1 [Compound 131],48%
3,O=C(Nc1ccc2c(O)c(N=Nc3ccc(Cl)cc3)c(S(=O)(=O)O)cc2c1)c1ccc(C(=O)Nc2ccc3c(O)c(N=Nc4ccc(Cl)cc4)c(S(=O)(=O)O)cc3c2)cc1 [Compound 181],43%
4,O=C(O)c1ccc(N=Nc2c(S(=O)(=O)O)cc3cc(Nc4c(Nc5ccc6c(O)c(N=Nc7ccc(C(=O)O)cc7)c(S(=O)(=O)O)cc6c5)c(=O)c4=O)ccc3c2O)cc1 [Compound 186],0.5%
5,O=C(O)c1ccc(N=Nc2c(S(=O)(=O)O)cc3cc(NC(=O)c4cccc(C(=O)Nc5ccc6c(O)c(N=Nc7ccc(C(=O)O)cc7)c(S(=O)(=O)O)cc6c5)n4)ccc3c2O)cc1 [Compound 118],0.25%
6,O=C(Nc1ccc2c(O)cc(S(=O)(=O)O)cc2c1)Nc1cccc2c(=O)[nH][nH]c(=O)c12 [Compound 16],81%
7,COc1cc(C(=O)O)c(N=Nc2c(S(=O)(=O)O)cc3cc(NC(=O)c4ccc(C(=O)Nc5ccc6c(O)c(N=Nc7c(C(=O)O)cc(OC)c(OC)c7OC)c(S(=O)(=O)O)cc6c5)cc4)ccc3c2O)c(OC)c1OC [Compound 177],0.17%
8,O=C(O)c1ccc(N=Nc2c(S(=O)(=O)O)cc3cc(NC(=O)c4cc(=O)cc(C(=O)Nc5ccc6c(O)c(N=Nc7ccc(C(=O)O)cc7)c(S(=O)(=O)O)cc6c5)o4)ccc3c2O)cc1 [Compound 132],0.19%
9,O=C(Nc1ccc2c(S(=O)(=O)O)cccc2c1)Nc1ccc2c(S(=O)(=O)O)cccc2c1 [Compound 81],78%
10,Cc1cc(C(=O)O)ccc1N=Nc1c(S(=O)(=O)O)cc2cc(Nc3c(Nc4ccc5c(O)c(N=Nc6ccc(C(=O)O)cc6C)c(S(=O)(=O)O)cc5c4)c(=O)c3=O)ccc2c1O [Compound 192],0.3%
11,O=C(O)/C=C/c1ccc(N=Nc2c(S(=O)(=O)O)cc3cc(NC(=O)c4ccc(C(=O)Nc5ccc6c(O)c(N=Nc7ccc(/C=C/C(=O)O)cc7)c(S(=O)(=O)O)cc6c5)cc4)ccc3c2O)cc1 [Compound 161],25%
12,Cc1cc(C(=O)O)ccc1N=Nc1c(S(=O)(=O)O)cc2cc(NC(=O)c3cc(=O)cc(C(=O)Nc4ccc5c(O)c(N=Nc6ccc(C(=O)O)cc6C)c(S(=O)(=O)O)cc5c4)o3)ccc2c1O [Compound 144],0.26%
13,O=C(Nc1ccc2c(O)c(N=Nc3ccc(Br)cc3Br)c(S(=O)(=O)O)cc2c1)c1ccc(C(=O)Nc2ccc3c(O)c(N=Nc4ccc(Br)cc4Br)c(S(=O)(=O)O)cc3c2)cc1 [Compound 182],35%
14,O=C(O)CCc1ccc(N=Nc2c(S(=O)(=O)O)cc3cc(Nc4c(Nc5ccc6c(O)c(N=Nc7ccc(CCC(=O)O)cc7)c(S(=O)(=O)O)cc6c5)c(=O)c4=O)ccc3c2O)cc1 [Compound 188],0.3%
15,O=C(O)c1cccc(N=Nc2c(S(=O)(=O)O)cc3cc(Nc4c(Nc5ccc6c(O)c(N=Nc7cccc(C(=O)O)c7)c(S(=O)(=O)O)cc6c5)c(=O)c4=O)ccc3c2O)c1 [Compound 190],0.5%
16,COC(=O)c1ccccc1NC(=O)Nc1ccc2c(O)cc(S(=O)(=O)O)cc2c1 [Compound 29],108%
17,CC(NC(=O)Nc1ccc2c(O)cc(S(=O)(=O)O)cc2c1)c1ccc(F)cc1 (stereo not drawn) [Compound 12],88%
18,COC(=O)C(Cc1c[nH]c2ccccc12)NC(=O)Nc1ccc2c(O)cc(S(=O)(=O)O)cc2c1 (stereo not drawn) [Compound 17],82%
19,CCOC(=O)c1ccc(N=Nc2c(S(=O)(=O)O)cc3cc(NC(=O)Nc4ccc5c(O)c(N=Nc6ccc(C(=O)OCC)cc6)c(S(=O)(=O)O)cc5c4)ccc3c2O)cc1 [Compound 44],19%
20,O=C(Nc1ccc2c(O)cc(S(=O)(=O)O)cc2c1)Nc1cccc2c1C(=O)c1ccccc1C2=O [Compound 20],86%

# Same assay, conditions: 0.05 h, read-out: % RT activity remaining at 10 μM
row,Compound,remaining activity at 10 µM
1,O=C(NC(=O)Oc1ccccc1)Nc1ccc2cc(S(=O)(=O)O)cc(O)c2c1 [Compound 30],87%

# Same assay, conditions: read-out: IC50 (RT activity)
row,Compound,IC50
1,O=c1c(Nc2ccc3c(O)cc(S(=O)(=O)O)cc3c2)c(Nc2ccc3c(O)cc(S(=O)(=O)O)cc3c2)c1=O [Compound 184],1000 nM

# — patent US6140368A, “Naphthols useful in antiviral methods” (The Regents of the University of California, priority 1998, dated 2000)
